Entries after “also recorded” stand apart in the source; their conditions may differ.
Experiments:
[1] = biological target: T1, recombinant rat brain FTase (Rattus norvegicus, UniProt Q02293+Q04631); assay: Inhibition of FTase-catalyzed transfer of [^3 H]farnesyl from [^3 H]FPP to H-Ras; type: biochemical; conditions: concentrations as high as 250 μM
T1 construct: 6xHis (N); made in house; host or cells: Sf9 insect cells (baculovirus)
Experimental: FIG. 2. Differential Inhibition of Farnesyltransferase and CAAX Geranylgeranyltransferase by AGPP. The assay mixtures contained (in a final volume of 25 μl) various components as described in "Experimental Procedures". After incubation for 15 min at 37° C., the amount of [^3 H]prenyl group transferred to the appropriate protein substrate [H-Ras (CVLS) for FTase and H-Ras (CVLL) for CAAX GGTase] was measured by precipitation with ethanol-HCl. The assays contained 10 ng recombinant rat FTase, 5 μM H-Ras, and 0.6 μM [^3 H]FPP (33,000 dpm/pmol) or 100 ng recombinant rat CAAX GGTase, 5 μM H-Ras CVLL, and 1 μM [^3 H]GGPP (33,000 dpm/pmol) and the indicated concentration of unlabeled AGPP. The 100% of control values were 1.1 and 5.5 pmol of [^3 H]farnesyl or [^3 H]geranylgeranyl transferred per tube. Each value is the average of duplicate incubations and is representative of two separate experiments.
FIG. 3. Inhibition of Farnesyltransferase by AGPP and I-AGPP. The enzymatic activity was measured in the presence of the various concentrations of either AGPP or I-AGPP as described in […]. The 100% control values were 1.9 and 2 pmol. Each value is the average of duplicate incubations and is representative of three separate experiments.
(§1) Assay for Farnesyltransferase Activity--Farnesyltransferase activity was assayed by measuring the amount of [^3 H]farnesyl or [^3 H]anilinogeranyl transferred from [^3 H]FPP or [^3 H]AGPP to recombinant p21^H-ras, as described previously (31). Unless otherwise stated, each reaction mixture contained the following components in a final volume of 25 μl: 50 mM Tris (pH 7.4), 20 mM KCl, 0.2% octyl β-glucopyranoside, 1 mM dithiothreitol, 10-20 ng recombinant FTase, 5 μM p21^Ha-ras, 3 mM MgCl2, 50 μM ZnCl2, and 0.6 μM [^3 H]FPP (33,000 dpm/pmol; American Radiochemical Co.) or 0.1-5 μM [^3 H]AGPP (37,400 dpm/pmol). Following incubation for the indicated times at 37° C., the amount of [^3 H]prenyl transferred was measured by ethanol-HCl precipitation and filtration on glass fiber filters with modification as previously described (19). A blank value was determined in parallel incubation mixtures containing no enzyme. This blank value was subtracted from each reaction before calculating pmol [^3 H]prenyl transferred.
Inhibition of Farnesyltransferase by AGPP--AGPP was tested for its ability to inhibit recombinant rat brain FTase activity in vitro. AGPP inhibited FTase in a concentration dependent manner with an IC50 value of 0.6 μM (FIG. 2).
Kinetic analyses were carried out to investigate the mechanism of FTase inhibition by AGPP. […] The same Km value was observed when the Lineweaver-Burke plot was analyzed under different Ras and AGPP concentrations in the presence of a constant concentration of FPP. […] AGPP inhibition is reversible, since transfer of [^3 H]-FPP by FTase to Ras was restored by isolating the farnesyltransferase by gel filtration chromatography after preincubation in the presence of 50 μM AGPP (data not shown).
The assays contained 10 ng recombinant rat FTase, 5 μM H-Ras, and 0.6 μM [^3 H]FPP (33,000 dpm/pmol) or 100 ng recombinant rat CAAX GGTase, 5 μM H-Ras CVLL, and 1 μM [^3 H]GGPP (33,000 dpm/pmol) and the indicated concentration of unlabeled AGPP. The 100% of control values were 1.1 and 5.5 pmol of [^3 H]farnesyl or [^3 H]geranylgeranyl transferred per tube.

FTase [2] = biological target: T2, FTase (Rattus norvegicus, UniProt Q02293+Q04631); assay: Inhibition of FTase-catalyzed transfer of [^3 H]AGPP to p21^H-ras; type: biochemical; parameters: H-Ras is only the protein substrate; conditions: non-radiolabeled compound, time and concentration dependent transfer
Experimental: as §1
(§2) The observed inhibition kinetics could be a manifestation of the ability of AGPP to act as an alternative substrate for FTase. To evaluate the potential of AGPP to serve as a substrate of FTase, [^3 H]-AGPP was prepared by a similar route as described above, incorporating tritium with a specific activity of 17 Ci/mmol (synthesis to be reported elsewhere). […] The incorporated radioactivity was detected as a band of the expected molecular weight of farnesylated p21^H-ras on SDS-polyacrylamide gels (FIG. 4A, inset). […] The concentration of [^3 H]AGPP that gave half-maximal reaction velocity was approximately 0.5 μM (FIG. 4B).

FTase [3] = biological target: T2, FTase; assay: FTase-catalyzed transfer of labeled FPP analogs to p21^H-ras (substrate assay); type: biochemical; parameters: H-Ras is only the protein substrate; conditions: in vitro, 37° C.
Experimental: FIG. 4. Transfer of Anilinogeranyl from [^3 H]AGPP to p21^Ha-ras by Farnesyltransferase. (A) Each reaction contained 1 μM [^3 H]AGPP (37,400 dpm/pmol) and 10 ng of recombinant FTase in the absence (triangles) or presence (circles) of 5 μM p21^Ha-ras Duplicate samples were incubated for the indicated times at 37° C., and ethanol-HCl precipitated radioactivity was measures as described under "Experimental Procedures". […] The gel was treated with Amplify solution (Amersham), dried, and exposed to Kodak X-OMAT AR film for 2 days at -70° C. The migration of molecular weight markers placed in a adjacent lane is shown. (B) The AGPP substrate saturation curve for FTase was determined by varying the amount of [^3 H]AGPP in the standard reaction described above. Assays were carried out in duplicate for 30 min at 37° C., and the ethanol-HCl precipitable radioactivity measured. The data is representative of three independent experiments.
FIG. 5. […] Farnesyltransferase (10 ng) was incubated in a final volume of 25 μl in the presence of 1.0 μM [^3 H]AGPP or [^3 H]FPP and 5 μM wild-type p21^Ha-ras. After incubation for 30 min at 37° C., the amount of [^3 H]prenyl transferred to p21^Ha-ras was determined as described under "Experimental Procedures". Each value is the average of duplicate incubations and is representative of five separate experiments.
as §1, §2
FIG. 5 depicts transfer of unnatural anilinogeranyl lipid from [^3 H]AGPP and transfer of farnesyl lipid from [^3 H]FPP to H-Ras by FTase. Farnesyltransferase (10 ng) was incubated in a final volume of 25 μl in the presence of 1.0 μM [^3 H]AGPP or [^3 H]FPP and 5 μM wild-type H-Ras. After incubation for 30 min. at 37° C., the amount of [^3 H]prenyl transferred to H-Ras was determined by ethanol-HCl precipitation and scintillation counting. Each value is the average of duplicate incubations and is representative of five separate experiments.

FTase [4] = biological target: T2, FTase; assay: Continuous fluorescence assay: transfer of FPP and analogs to N-dansyl-GCVLS by FTase; type: biochemical; conditions: excitation 340 nm, 505 nm
Description: FIG. 8. Progress Curves for Transfer of FPP and Analog Pyrophosphates to Dansyl-GCVLS by FTase. The reaction is monitored for fluorescence intensity at 505 nm with excitation at 340 nm. (a) FPP, (b) AGPP, (c) 8-(pentafluoroaniline)geranyl pyrophosphate, (d) blank.
Continuous Fluorescence Assay for Analog Transfer: An important requirement for these studies is the development of a rapid technique for evaluating whether FPP analogs that are efficiently and appropriately transferred to target substrates by FTase. The analogs were evaluated for their ability to be transferred by FTase to the pentapeptide N-dansyl-GCVLS in a continuous fluorescence assay. (See references 78, 79, infra). There is a time dependent increase in the fluorescence of the dansyl group due to the local increase in hydrophobicity as the adjacent cysteine residue is isoprenylated. […] (FIG. 8).

Xenopus laevis oocytes = assay: Xenopus laevis oocyte maturation assay (GVBD) with oncogenic H-Ras in mevinolin-treated oocytes; type: cell-based; conditions: 50 μM mevinolin, overnight
Description: Recently, a novel methodology involving the microinjection of known amounts of Ras into Xenopus oocytes has been described (see references 24, 45, infra), thereby permitting a quantitative structure-function analysis of H-Ras farnesyl-group for signal transduction in vivo. The approach makes use of enzymatic methods to attach structurally related farnesyl analogs onto the prenylation site of H-Ras combined with microinjection procedures to study their in vivo function. Oocytes are naturally arrested at the G2-M boundary of the first meiotic cell division. (See reference 80, infra). When microinjected with oncogenic H-Ras, oocytes reenter the cell cycle, which is monitored by germinal vesicle breakdown (GVBD) by the appearance of a white spot in the animal hemisphere. GVBD is accompanied by activation of the mitogen-activated protein kinase (MAPK) cascade. (See 81, 82, infra). […] (See references 24, 45, infra). These biochemical effects are strictly dependent on in vivo farnesylation of the injected H-Ras protein since mutation of the CaaX prenylation motif, blocking isoprenoid biosynthesis, and inhibition of FTase in oocytes all suppress these activities. (See references 83-85, infra). Thus, the system provides a method to study the in vivo role of prenylation by analyzing the ability of FPP analogues to rescue H-Ras biological functions in isoprenoid-depleted oocytes. […] Oocytes were isolated from X. laevis females and allowed to recover overnight. (See 24, 45, infra).

Which “inhibition of FTase by anilinogeranyl alcohol, in words” value [1] does the source give for `C/C(=C\CO)CC/C=C(\C)CNc1ccccc1` [AG-OH, (E,E)-8-Aniline-3,7-dimethyl-2,6-octadien-1-ol] here?
The value was “did not significantly inhibit”.

And the “inhibition of transfer of [^3 H]AGPP to p21^H-ras, in words” value (FTase [2])?
Its value is “not AG-OH or farnesol were found to inhibit”.

How did the “transfer to p21^H-ras by FTase, in words” value (FTase [3]) turn out when `C/C(=C\COP(=O)(O)OP(=O)(O)O)CC/C=C(\C)CNc1ccc(I)cc1` [I-AGPP, 8-(4-iodoaniline)-3,7-dimethyl-2,6-octadiene pyrophosphate] was run?
Its value is “efficient transfer of I-AGPP by FTase to H-Ras”.

What about the “transfer to p21^H-ras by FTase, in words” value (FTase [3]; listed as 125 I-AGPP) of the same molecule?
Its value is “time and substrate dependent manner similar to [^3 H]AGPP”.

Which “time-dependent increase in dansyl fluorescence / transfer to dansyl peptide, in words” value (FTase [4]) does the source give for `C/C(=C\COP(=O)(O)OP(=O)(O)O)CC/C=C(\C)CNc1ccc([N+](=O)[O-])cc1` [analog 2, 8-(4-nitroaniline)-3,7-dimethyl-2,6-octadiene pyrophosphate] here?
The value was “Time-dependent increases in the fluorescence of the dansyl group”.

For `C/C(=C\COP(=O)(O)OP(=O)(O)O)CC/C=C(\C)CNc1c(F)c(F)c(F)c(F)c1F` [analog 4, 8-pentafluoroaniline-3,7-dimethyl-2,6-octadiene pyrophosphate], which “time-dependent increase in dansyl fluorescence / transfer to dansyl peptide, in words” value (FTase [4]) is on record?
The value was “Time-dependent increases in the fluorescence of the dansyl group; also recorded: does not change the apparent kinetics of transfer”.

How did the “time-dependent increase in dansyl fluorescence / transfer to dansyl peptide, in words” value (FTase [4]) turn out when `C/C(=C\COP(=O)(O)OP(=O)(O)O)CC/C=C(\C)CNc1c(F)c(F)c(N=[N+]=[N-])c(F)c1F` [analog 5, 8-(4-azido-2,3,5,6-tetrafluoroaniline)-3,7-dimethyl-2,6-octadiene pyrophosphate] was run?
Its value is “no increase in fluorescence, and are not transferred”.

How did the “time-dependent increase in dansyl fluorescence / transfer to dansyl peptide, in words” value (FTase [4]) turn out when `CCN(C/C(C)=C/CC/C(C)=C/COP(=O)(O)OP(=O)(O)O)c1c(F)c(F)c(N=[N+]=[N-])c(F)c1F` [analog 6, 8-(N-ethyl-4-azido-2,3,5,6-tetrafluoroaniline)-3,7-dimethyl-2,6-octadiene pyrophosphate] was run?
Its value is “no increase in fluorescence, and are not transferred”.

With `C/C(=C\COP(=O)(O)OP(=O)(O)O)CCCOCc1ccccc1` [analog 12, 6-benzyloxy-3-methyl-2-hexene pyrophosphate] as the molecule, how does the “time-dependent increase in dansyl fluorescence / transfer to dansyl peptide, in words” value (FTase [4]) read?
Its value is “transferred to dansyl peptide by FTase with slow kinetics; also recorded: Time-dependent increases in the fluorescence of the dansyl group”.

`CC(C)=CCCC(C)=CCCC(C)=CCO` [farnesol, reference compound] was tested. Which “inhibition of transfer of [^3 H]AGPP to p21^H-ras, in words” value (FTase [2]) did it give?
Its value is “not AG-OH or farnesol were found to inhibit”.

For `CC[C@H](C)C(=O)O[C@H]1C[C@@H](C)C=C2C=C[C@H](C)[C@H](CC[C@@H]3C[C@@H](O)CC(=O)O3)[C@H]21` [mevinolin, reference compound], which “depletion of endogenous FPP pool” value (Xenopus laevis oocytes) is on record?
The value was “effectively depletes the endogenous pool of FPP”.

Source: US6284910A, “Farnesyl pyrophosphate analogs” (University of Kentucky Research Foundation, priority 1999, dated 2001)
